{
  "source": "patent US8481514B2",
  "about": "“Therapeutical uses of inecalcitol” (Hybrigenics SA, priority 2009, dated 2013)",
  "key": {"[1]": {"assay": "Dose finding and clinical tolerance study of inecalcitol with docetaxel-prednisone in HRPC patients (safety)", "type": "in vivo, human", "conditions": "for adverse events related to the drug: attribution of the AEs seen under the combination", "experimental": "Escalating oral dosages of inecalcitol were combined to chemotherapy in naive HRPC patients. Safety was evaluated in groups of 3-6 patients receiving inecalcitol every other day (qod) or daily (qd) on a 21-day cycle in combination with intravenous docetaxel (75 mg/m2 q3w) and oral prednisone (5 mg bid). Patients (pts) received up to six cycles unless unacceptable toxicity or disease progression. Primary endpoint was dose limiting toxicity (DLT) defined as grade 3 hypercalcemia within the first cycle. Calcemia, creatininemia and complete blood counts were assessed weekly; biochemistry, electrocardiogram and prostate specific antigen (PSA) every 3 weeks. Efficacy endpoint was PSA response defined as ≧30% decline within 3 months.\n(§1) Inecalcitol was given to patients in soft gelatine capsules of different sizes, shapes and strengths depending on the dose level studied: one, two or four 40 μg capsules (size 11, oblong shape) for administration of 40, 80 or 160 μg/day, respectively; three or six 100 μg capsules (size 4, round shape) for administration of 300 or 600 μg/day, respectively; five 200 μg capsules (size 7.5, oval shape) for administration of 1,000 μg/day; five 400 μg capsules (size 14, oblong shape) for administration of 2 mg/day, and four 1 mg capsules (size 14, oblong shape) for administration of 4 mg/day. In all the capsules, inecalcitol was present in the fill content as a solution in medium chain triglycerides from fractionated coconut oil at different concentrations depending on the capsule strengths."}, "[2]": {"conditions": "Eelen et al. 2005; Verlinden et al. 2001; cited from earlier work"}, "[3]": {"assay": "9-month toxicokinetic study of once-a-day oral inecalcitol in monkeys (plasma concentrations)", "type": "in vivo", "conditions": "male mature monkeys, day 1 and day 272", "experimental": "FIG. 1 illustrates the mean plasma concentrations vs time obtained during a 9-month toxicology study on once-a-day oral inecalcitol performed in male mature monkeys.\n(§2) On FIG. 1, mean plasma concentrations of inecalcitol are plotted vs. time on the first day of the study and close to its end, at day 272. The mean toxicokinetic profiles are almost superimposable, with a mean peak of about 1.2 ng/ml achieved as soon as 15 minutes after oral intake, and a steady disappearance from circulation within 4 hours."}, "[4]": {"assay": "9-month toxicology study of once-a-day oral inecalcitol in monkeys (calcemia, toxicity)", "type": "in vivo", "experimental": "as §2"}, "[5]": {"assay": "2-week toxicology study of twice-a-day oral inecalcitol in monkeys (calcemia, toxicity)", "type": "in vivo, cynomolgus monkeys", "conditions": "for plasma calcium level (mean±s.e.m.): same 4 animals", "experimental": "(§3) On FIG. 2, mean plasma concentrations of inecalcitol are plotted vs. time on the first day of treatment with two successive administrations of inecalcitol around 8 AM and 7 PM, i.e. about 11 hours apart. […] In both instances, inecalcitol levels returned to basal levels within 4 hours. In the table below, plasma calcium levels (in mmoles/L, mean±s.e.m.) were monitored in the same 4 animals for two weeks before and for two weeks during the treatment period."}, "[6]": {"conditions": "Eelen et al. 2005; Verlinden et al. 2001; cited from earlier work", "remark": "listed apart in the source"}, "[7]": {"test_system": "human breast cancer cells", "conditions": "in vitro and in vivo; Verlinden et al. 2000; cited from earlier work"}, "[8]": {"assay": "2-week toxicokinetic study of twice-a-day oral inecalcitol in monkeys (plasma concentrations)", "type": "in vivo, cynomolgus monkeys", "conditions": "first day of treatment", "experimental": "FIG. 2 illustrates the mean plasma concentrations vs time obtained during a 2-week toxicology study on twice-a-day oral inecalcitol performed in male juvenile monkeys.\nas §3"}, "[9]": {"assay": "Pharmacokinetics of oral inecalcitol in HRPC patients (LC/MS/MS of plasma)", "type": "in vivo", "conditions": "human patients", "experimental": "as §1\nInecalcitol was assayed as unchanged circulating compound in the plasma by liquid chromatography followed by tandem mass spectrometry (LC/MS/MS). […] At 600 μg and 1000 μg, mean peak values reached around 35 and 45 pg/ml (0.035 and 0.045 ng/ml) at 90 and 45 minutes, respectively."}, "[10]": {"conditions": "50 pts treated, inecalcitol with docetaxel and prednisone"}, "[11]": {"conditions": "HRPC patients, oral 300 μg, 600 μg, 1000 μg (qod,qd), 2 mg (qd) or 4 mg (qd)"}, "[12]": {"conditions": "male mature cynomolgus monkeys, daily oral, 9 months, up to highest tested dose 1.8 mg per day per monkey"}, "[13]": {"conditions": "male juvenile cynomolgus monkeys, twice daily oral, 2×1.6 mg each day, 2 weeks"}},
  "data": [
    {"compound": "CC(=O)O[C@@]12CO[C@@H]1C[C@H](O)[C@@]1(C)C(=O)[C@H](O)C3=C(C)[C@@H](OC(=O)[C@H](O)[C@@H](NC(=O)OC(C)(C)C)c4ccccc4)C[C@@](O)([C@@H](OC(=O)c4ccccc4)[C@H]21)C3(C)C", "note": "[docetaxel, reference compound]", "values": [
      {"measurement": "adverse events related to the drug", "setting": "[1]", "result": "All these AEs"}
    ]},
    {"compound": "C[C@H](CC#CC(C)(C)O)[C@H]1CC[C@@H]2/C(=C/C=C3C[C@@H](O)C[C@H](O)C3)CCC[C@@]21C", "note": "[inecalcitol, 19-nor-9,10-seco-14βH-cholesta-5(Z),7(E)-dien-23-ino-1α,3β,25-triol-23-yne]", "values": [
      {"measurement": "calcemic effects compared with calcitriol", "setting": "[2]", "result": "markedly lower"},
      {"measurement": "mean peak plasma concentration", "setting": "[3]; 1.8 mg per day", "result": "about 1.2 ng/ml"},
      {"measurement": "disappearance from circulation", "setting": "[3]", "result": "≤ 4", "unit": "h"},
      {"measurement": "time of mean peak after oral intake", "setting": "[3]", "result": 15, "unit": "min"},
      {"measurement": "G1-2 adverse event: asthenia", "setting": "[1]; [10]", "result": 22, "unit": "pts"},
      {"measurement": "G1-2 adverse event: constipation", "setting": "[1]; [10]", "result": 15, "unit": "pts"},
      {"measurement": "G1-2 adverse event: diarrhea", "setting": "[1]; [10]", "result": 13, "unit": "pts"},
      {"measurement": "G3-4 AE: arrhythmia", "setting": "[1]; [10]", "result": 2, "unit": "pts"},
      {"measurement": "G3-4 AE: asthenia", "setting": "[1]; [10]", "result": 3, "unit": "pts"},
      {"measurement": "G3-4 AE: diarrhea", "setting": "[1]; [10]", "result": 1, "unit": "pt"},
      {"measurement": "G3-4 AE: general health deterioration", "setting": "[1]; [10]", "result": 3, "unit": "pts"},
      {"measurement": "G3-4 AE: lymphopenia", "setting": "[1]; [10]", "result": 12, "unit": "pts"},
      {"measurement": "G3-4 AE: neutropenia", "setting": "[1]; [10]", "result": 36, "unit": "pts"},
      {"measurement": "increased calcemia", "setting": "[1]; HRPC patients, oral 40 μg to 4 mg qod or qd, with docetaxel and prednisone, 50 pts treated", "result": "No increased calcemia"},
      {"measurement": "hypercalcemia", "setting": "[1]; [11]", "result": "did not induce any hypercalcemia"},
      {"measurement": "toxic effect", "setting": "[1]; [11]", "result": "did not induce any hypercalcemia or any toxic effect"},
      {"measurement": "adverse events related to the drug", "setting": "[1]", "result": "none"},
      {"measurement": "maximal tolerated dose", "setting": "[4]; 9-month daily oral, highest tested dose 1.8 mg per day per monkey", "result": "has not been reached"},
      {"measurement": "difference in plasma calcium levels between control and treated monkeys", "setting": "[4]; different time points during the 9-month study", "result": "did not show any difference"},
      {"measurement": "hypercalcemia", "setting": "[4]; [12]", "result": "no hypercalcemia"},
      {"measurement": "toxic effects", "setting": "[4]; [12]", "result": "no toxic effects"},
      {"measurement": "plasma calcium level (mean±s.e.m.)", "setting": "[4]; treated monkeys n = 6, Day 85", "result": "2.53 ± 0.03", "unit": "mmol/L"},
      {"measurement": "plasma calcium level (mean±s.e.m.)", "setting": "[4]; treated monkeys n = 6, Day 175", "result": "2.49 ± 0.05", "unit": "mmol/L"},
      {"measurement": "plasma calcium level (mean±s.e.m.)", "setting": "[4]; treated monkeys n = 6, Day 268", "result": "2.51 ± 0.05", "unit": "mmol/L"},
      {"measurement": "plasma calcium level (mean±s.e.m.)", "setting": "[4]; treated monkeys n = 6, Day −12 (before treatment)", "result": "2.54 ± 0.11", "unit": "mmol/L"},
      {"measurement": "hypercalcemia", "setting": "[5]; [13]", "result": "no hypercalcemia"},
      {"measurement": "toxic effects", "setting": "[5]; [13]", "result": "no toxic effects"},
      {"measurement": "plasma calcium level (mean±s.e.m.)", "setting": "[5]; Day 7 of treatment, 2×1.6 mg each day", "result": "2.68 ± 0.15", "unit": "mmol/L"},
      {"measurement": "plasma calcium level (mean±s.e.m.)", "setting": "[5]; Day 13 of treatment, 2×1.6 mg each day", "result": "2.76 ± 0.12", "unit": "mmol/L"},
      {"measurement": "plasma calcium level (mean±s.e.m.)", "setting": "[5]; Day −6 (before treatment)", "result": "2.61 ± 0.06", "unit": "mmol/L"},
      {"measurement": "plasma calcium level (mean±s.e.m.)", "setting": "[5]; Day −13 (before treatment)", "result": "2.66 ± 0.088", "unit": "mmol/L"},
      {"measurement": "changes in plasma calcium", "setting": "[5]; two weeks before vs two weeks during treatment", "result": "No significant changes"},
      {"measurement": "antiproliferative effects compared with calcitriol", "setting": "[6]", "result": "enhanced"},
      {"measurement": "activity on growth of human breast cancer cells", "setting": "[7]", "result": "inhibiting the growth"},
      {"measurement": "return of inecalcitol levels to basal levels", "setting": "[8]; after each of the two administrations", "result": "≤ 4", "unit": "h"},
      {"measurement": "peak mean plasma concentration, second administration", "setting": "[8]; male juvenile monkeys, 1.6 mg oral around 7 PM", "result": 2.50, "unit": "ng/mL"},
      {"measurement": "peak mean plasma concentration, first administration", "setting": "[8]; male juvenile monkeys, 1.6 mg oral around 8 AM", "result": 2.75, "unit": "ng/mL"},
      {"measurement": "peak plasma values", "setting": "[9]; oral 300 μg, lower limit of quantitation 10 pg/ml", "result": "barely detectable above the lower limit of quantitation"},
      {"measurement": "time of mean peak value", "setting": "[9]; oral 600 μg", "result": 90, "unit": "min"},
      {"measurement": "time of mean peak value", "setting": "[9]; oral 1000 μg", "result": 45, "unit": "min"},
      {"measurement": "time of mean peak value", "setting": "[9]; oral 2 mg", "result": 90, "unit": "min"},
      {"measurement": "time of mean peak value", "setting": "[9]; oral 4 mg", "result": 45, "unit": "min"},
      {"measurement": "half-life", "setting": "[9]; male, plasma, four mean profiles between 600 μg and 4 mg oral, read-out: approximate half-life", "result": "1 to 1.5", "unit": "h"}
    ]}
  ]
}
